Assay results from article PMC5395518, “Design, synthesis, and biological evaluation of the novel glycyrrhetinic acid-cinnamoyl hybrids as anti-tumor agents” (Chemistry Central Journal, 2016).

What was measured:
[1] = system: caspase-3; test: Caspase-3 activity assay (Ac-DEVD-pNA cleavage) in Hela cells; type: cell-based, human; details: 5, 10, 20 μM, 48 h
Description: Hela cells were seeded in dishes at a density of 5 × 10^5 cell per dish and the dishes were kept at 37 °C with 5% CO2 for 24 h. On the next day, various concentration of 8a (0, 5, 10, 20 μM) were added to the cells and cultured for 48 h. Pre-cooled PBS were added twice to wash the cells. After removal of the medium, ice-cold cell lysis buffer was added, and the cells were further incubated in an ice bath for 15 min, which contribute to the protein acquisition. The caspase-3 activity kit (Beyotime Institute of Biotechnology, Beijing, China) was used to determine the activity of caspase-3. A total of 50 μL cell lysates, 40 μL reaction buffer and 10 μL caspase-3 substrate (Ac-DEVDpNA) (2 mM) were added to 96-well plates. After 30 min of incubation, absorbance was measured at 405 nm, and samples were quantified with ELISA.

[2] = system: Hela cells; test: Annexin V-FITC/PI flow cytometric apoptosis assay; type: cell-based, human; details: 72 h, control 7.5%
Description: Hela cells were seeded in 12-well plates (5 × 10^4 cells/well), which were placed in a humidified atmosphere for 24 h at 37 °C with 5% CO2. After treated with different concentrations of 8a (5, 10, 20 μM) for 72 h, all cells were collected respectively with the right amount of trypsin (without EDTA) digestion. After added 1 mL cold PBS, the cells were gently suspended and centrifuged at 1000 rpm for 5 min. The harvested cells were suspended in 200 μL binding buffer which contained 10 μL Annexin V-FITC and PI. After avoided light reaction for 15 min, the cells were analyzed with a flow cytometry (BD, USA).

[3] = system: Kunming mice; test: Acute toxicity by gavage in Kunming mice; type: in vivo
Text: Forty healthy Kunming mice (weight 18–22 g) of both sexes were purchased from Beijing Vital River Laboratory Animal Technology Company Limited (Beijing, China). The mice were divided into two groups matched the same weight and size, along with the standard in our previous studies. In briefly, 20 mice were selected for blank control group, and the other 20 mice were for the treated group. All experiments followed the guidelines of “Regulation for the Administration of Affairs Concerning Experimental Animals” (State Council of China, 1988). All animals were placed in cages, fed with standard rodent chow and water ad libitum under a 12-h light–dark cycle. Before the experiments, the mice were deprived of food for 12 h but provided water freely. Then the treated group of both sexes were administered a single dose of 8a (0.3 mL/10 g) via gavage twice a day, which was prepared in advance in bean oil solution with the maximum suspended dose (50 mg/mL). The total administration of 8a was 3 g/kg during 8 h. And the blank control group were given bean oil by oral administration only. The mice’s general behavior was continuously noted in the first hour, intermittently observed in the next 4 h, and thereafter over a period of 24 h. Observations of the signs for toxicity and deaths were last for 14 days. The mortality response and behavior of toxic effects of mice were recorded.

[4] = system: HepG2 cells; test: MTT cytotoxicity assay, HepG2; type: cell-based, human; details: 72 h, mean ± SD (n = 3)
Text: (§1) HepG2 (human hepatocellular carcinoma), Hela (human cervical cancer), HT-29 (human colon carcinoma), MDCK (Madin–Darby canine kidney), H9C2 (rat myocardial cells) and HY926 were purchased from the Chinese Academy of Medical Sciences and Peking Union Medical College. All of these cell lines were maintained in RPMI-1640 (DMEM) supplemented with 10% (v/v) fetal bovine serum (FBS) and 1% (v/v) penicillin/streptomycin (Thermo Technologies, New York, NY, USA) under a humidified atmosphere containing 5% CO2 at 37 °C. To provide stock solutions which were used to prepare various concentrations of treatment media, GA and hybrids were added a volume of DMSO.
(§2) The cytotoxicity of these compounds was evaluated on three human cancer cell lines (HepG2, HT-29, Hela) and three non-tumor cells lines (MDCK, HY926, H9C2) and MTT assay was performed to detect the cell proliferation. Simply, exponentially growing cells were cultured in 96-well plates (3 × 10^3 cells/well). And the plates were placed in a humidified atmosphere for 72 h at 37 °C with 5% CO2. After added MTT solution (5 mg/mL) 20 μL to each well, the plate was incubated for a further 4 h. Then the cell supernatant was removed and 150 μL DMSO was added. Finally, the absorbance was determined at wavelength of 490 nm with the ELISA. Wells without drugs were used to be blanks. The IC50 values were calculated using Logit-method. The following Eq. (1) was proposed to calculate the inhibitory rate of cell growth:1 %inhibition=1-Sample group OD/Control group OD×100%

[5] = system: H9C2 cells; test: MTT cytotoxicity assay, H9C2 (non-tumor); type: cell-based, rat
Text: as §1, §2

[6] = system: Hela cells; test: MTT cytotoxicity assay, Hela; type: cell-based, human
Text: as §1, §2

[7] = system: HY926 cells; test: MTT cytotoxicity assay, HY926 (non-tumor); type: cell-based
Text: as §1, §2

[8] = system: HT-29 cells; test: MTT cytotoxicity assay, HT-29; type: cell-based, human; details: 72 h, mean ± SD (n = 3)
Text: as §1, §2

[9] = system: Hela cells; test: Giemsa staining on Hela cells; type: cell-based, human; details: 5, 10, 20 μM, 72 h, with increase of concentration
Description: Hela cells were seeded in 12-well plates (5 × 10^3 cells/well), and then they were cultured for 24 h at 37 °C with 5% CO2. After that each group was added 8a, making the final concentration of 0, 5, 10, 20 μM respectively. After 72 h, the cell supernatant was removed and the cells were cleaned with PBS twice, then kept in PBS/ethanol (1:1) for 2 min and fixed with cold ethanol for 10 min. After discarding ethanol, the cells were stained with Giemsa (Giemsa, Molecular Probes/Invitrogen Life Technologies, Carlsbad, CA, USA) stained for 5 min and washed with water. In the end, the cells were observed and photographed under inverted phase-contrast microscope at a magnification of 200×.

[10] = system: MDCK cells; test: MTT cytotoxicity assay, MDCK (non-tumor); type: cell-based, canine
Text: as §1, §2

[11] = system: Hela cells; test: H33342 staining on Hela cells; type: cell-based, human; details: 5, 10, 20 μM, 72 h, with increase of concentration
Description: H33342 staining was used to confirm whether the characteristic nuclear changes were associated with 8a in this assay. Hela cells were cultured in 12-well plates (5 × 10^4 cells/well), which were placed in a humidified atmosphere for 24 h at 37 °C with 5% CO2. And then each group was added 8a, making the final concentration of 0, 5, 10, 20 μM respectively. After 72 h, cell culture medium was discarded and the cells were washed twice with PBS. H33342 staining was then performed for 2 min and washed with water. In the end, the cells were observed and photographed under inverted phase-contrast microscope at a magnification of 200×.

[12] = MTT, 72 h, mean ± SD (n = 3), non-tumor cells

In the case of `COc1ccc(/C=C/C(=O)OC2CCC3(C)C(CCC4(C)C3C(=O)C=C3C5CC(C)(C(=O)O)CCC5(C)CCC34C)C2(C)C)c(OC)c1OC` (stereo not drawn) [Compound 8a, (2,3,4-Trimethoxy) cinnamoyl-3β-hydroxy-11-oxoolean-12-en-30-oic acid], the “caspase-3 activities in Hela cells” value [1] is reported as “enhanced in a concentration-dependent manner”, the apoptosis ratio ([2]; 5 μM) is reported as 15.7% and the apoptosis ratio ([2]; 10 μM) is reported as 27.7%. The apoptosis ratio ([2]; 20 μM) was 60%, the “signs of toxicity or deaths” value ([3]; maximum tolerated dose 3 g/kg oral (gavage), 2 weeks observation, mice) was “no signs of toxicity or deaths were observed” and the LD50 ([3]; oral administration in mice) was “exceeded 3.0 g/kg”. The IC50 [4] was 21.5 ± 1.5 µM, the “inhibition rate against H9C2” value ([5]; 12.5 μM) was 3.56% and the IC50 [5, 12] was > 50 µM. The “inhibition rate against Hela” value ([6]; 12.5 μM) was 59.20%, the IC50 ([6]; MTT, 72 h, mean ± SD (n = 3)) was 8.54 ± 1.44 µM and the “inhibition rate against HY926” value ([7]; 12.5 μM) was 20.20%. For the same compound, the IC50 [7, 12] was 27.7 ± 1.39 µM, the IC50 [8] was 15 ± 1.26 µM and the “morphological changes by Giemsa staining” value [9] was “cell loss, nuclei lysis, chromatin condensation and cytoplasmic shrinkage were aggravated”. The “inhibition rate against MDCK” value ([10]; 12.5 μM) was 38.56%, the IC50 [10, 12] was 31.8 ± 2.79 µM and the “nuclear changes by H33342 staining” value [11] was “the nuclear fragmentation, the cytoplasmic shrinkage, and the shape of apoptotic cells became irregular”.
